Test results reported in patent publication US8501953B2, “PKM2 modulators for use in the treatment of cancer” (Agios Pharmaceuticals, Inc, priority 2009, dated 2013).

target: PKM2 (Homo sapiens, UniProt P14618); test: PKM2 Assay (activation; LDH-coupled, NADH absorbance at 340 nm); type: biochemical; conditions: PKM2 50 ng/well, ADP 0.7 mM, PEP 0.15 mM, no FBP in Reaction Mix
Protocol: • PKM2 stock enzyme solution was diluted in Reaction Buffer • 2 μL of compound was added into each well first, and then 180 μL of the Reaction Mix was added. • Reaction mixture with compound (without ADP) were incubated for 30 minutes at 4° C. • Plates were re-equilibrated to room temperature prior to adding 20 μL ADP to initiate the reaction. • Reaction progress was measured as changes in absorbance at 340 nm wavelength at room temperature (25° C.) Reaction Mix: PKM2 (50 ng/well), ADP (0.7 mM), PEP (0.15 mM), NADH (180 μM), LDH (2 units) in Reaction Buffer Reaction Buffer: 100 mM KCl, 50 mM Tris pH 7.5, 5 mM MgCl2, 1 mM DTT, 0.03% BSA.

Sequence of PKM2 (P14618 whole entry): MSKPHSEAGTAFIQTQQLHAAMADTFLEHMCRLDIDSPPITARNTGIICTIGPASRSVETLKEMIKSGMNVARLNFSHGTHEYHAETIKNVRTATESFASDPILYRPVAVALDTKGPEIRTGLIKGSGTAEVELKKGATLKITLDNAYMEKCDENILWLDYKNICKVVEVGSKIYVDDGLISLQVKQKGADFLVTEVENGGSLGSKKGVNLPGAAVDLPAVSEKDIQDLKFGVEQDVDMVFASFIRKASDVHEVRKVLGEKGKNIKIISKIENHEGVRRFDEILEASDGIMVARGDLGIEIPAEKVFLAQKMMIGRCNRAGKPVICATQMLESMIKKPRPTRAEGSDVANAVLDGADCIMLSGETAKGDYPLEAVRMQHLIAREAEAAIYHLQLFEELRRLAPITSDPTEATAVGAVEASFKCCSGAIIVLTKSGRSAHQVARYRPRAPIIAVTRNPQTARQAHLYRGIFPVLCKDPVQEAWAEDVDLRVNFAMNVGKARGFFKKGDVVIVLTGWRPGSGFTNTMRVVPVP

First: Cc1cc(NS(=O)(=O)c2cc3c(cc2C)oc(=O)n3C)ccc1Cl
Second: Cc1cc2oc(=O)n(C)c2cc1S(=O)(=O)Nc1ccc(Cl)c(Cl)c1
The AC50 of the first is lower: less than 1 µM for the first, 1 to 10 µM for the second.

`O=c1oc2cc(S(=O)(=O)Nc3ccc(Cl)cc3)ccc2n1Cc1ccccc1` and `Cn1c(=O)oc2cc(S(=O)(=O)Nc3ccccc3)ccc21` fall in the same range of AC50: 1 to 10 µM for the first, 1 to 10 µM for the second.

`Cn1c(=O)sc2ccc(NS(=O)(=O)c3ccccc3)cc21` and `O=c1[nH]c2cc(NS(=O)(=O)c3ccccc3)ccc2s1` fall in the same range of AC50: 10 to 50 µM for the first, 10 to 50 µM for the second.

Compared with `Cc1cc(NS(=O)(=O)c2cc(CN(C)C)c3c(c2)oc(=O)n3C)ccc1F`, `Cc1cc(NS(=O)(=O)c2cc(C)c3c(c2)oc(=O)n3C)ccc1F` is lower in AC50: greater than 100 µM for the first, less than 1 µM for the second.

First: Cn1c(=O)sc2ccc(NS(=O)(=O)c3c(F)cccc3F)cc21
Second: O=c1[nH]c2cc(NS(=O)(=O)c3c(F)cccc3F)ccc2s1
The AC50 of the first is lower: 1 to 10 µM for the first, 10 to 50 µM for the second.

`COc1cccc(F)c1S(=O)(=O)N(C)c1ccc2sc(=O)n(C)c2c1` and `COc1ccc(Cl)cc1S(=O)(=O)Nc1ccc2c(c1)sc(=O)n2C` fall in the same range of AC50: 10 to 50 µM for the first, 10 to 50 µM for the second.

Compared with `COc1ccc(S(=O)(=O)N2CCCN(S(=O)(=O)c3ccc4c(c3)sc(=O)n4C)CC2)cc1`, `Cc1cc2c(cc1S(=O)(=O)N1CCN(S(=O)(=O)c3ccc4c(c3)OCCO4)CC1)oc(=O)n2C` is lower in AC50: 1 to 10 µM for the first, less than 1 µM for the second.

Compared with `CCn1c(=O)oc2ccc(NS(=O)(=O)c3cccs3)cc21`, `CCn1c(=O)oc2cc(C)c(S(=O)(=O)Nc3ccccc3Cl)cc21` is lower in AC50: greater than 100 µM for the first, 10 to 50 µM for the second.

`Cc1cc2oc(=O)n(C)c2cc1S(=O)(=O)Nc1ccccc1Cl` and `Cn1c(=O)oc2cc(Cl)c(S(=O)(=O)Nc3ccccc3Cl)cc21` fall in the same range of AC50: 1 to 10 µM for the first, 1 to 10 µM for the second.

`CCc1cccc(NS(=O)(=O)c2cc3c(cc2C)oc(=O)n3C)c1` and `Cc1cc2oc(=O)n(C)c2cc1S(=O)(=O)Nc1cccc(Cl)c1` cannot be ordered by AC50: less than 1 µM for the first, less than 1 µM for the second.

First: Cn1c(=O)oc2cc(S(=O)(=O)NC(C)(C)C)ccc21
Second: Cc1ccc(NS(=O)(=O)c2ccc3c(c2)oc(=O)n3C)cc1C
The AC50 of the first is higher: greater than 100 µM for the first, less than 1 µM for the second.

`Cn1c(=O)oc2cc(S(=O)(=O)Nc3cccc(Cl)c3)ccc21` and `Cc1cc(NS(=O)(=O)c2ccc3c(c2)oc(=O)n3C)ccc1Cl` cannot be ordered by AC50: less than 1 µM for the first, less than 1 µM for the second.

`Cc1cc(C)cc(NS(=O)(=O)c2cc3sc(=O)n(C)c3cc2Cl)c1` and `Cc1cc(C)cc(NS(=O)(=O)c2ccc3oc(=O)n(C)c3c2)c1` cannot be ordered by AC50: less than 1 µM for the first, less than 1 µM for the second.

`Cc1cc2sc(=O)sc2cc1S(=O)(=O)Nc1ccc(Cl)cc1` and `Cc1cc2sc(=O)sc2cc1S(=O)(=O)Nc1ccccc1Cl` fall in the same range of AC50: 1 to 10 µM for the first, 1 to 10 µM for the second.

First: Cn1c(=O)oc2cc(S(=O)(=O)Nc3ccc(F)c(F)c3)ccc21
Second: Cc1ccc(NS(=O)(=O)c2ccc3c(c2)oc(=O)n3C)cc1F
The AC50 of the first is lower: less than 1 µM for the first, 1 to 10 µM for the second.

`Cc1cc2oc(=O)n(C)c2cc1S(=O)(=O)Nc1ccc2c(c1)OCO2` and `Cn1c(=O)oc2cc(S(=O)(=O)Nc3ccc4c(c3)OCO4)ccc21` cannot be ordered by AC50: less than 1 µM for the first, less than 1 µM for the second.

Compared with `COCCn1c(=O)oc2cc(C)c(S(=O)(=O)Nc3ccc(F)c(Cl)c3)cc21`, `Cc1cc2oc(=O)n(C)c2cc1S(=O)(=O)Nc1ccc(F)c(Cl)c1` is lower in AC50: 1 to 10 µM for the first, less than 1 µM for the second.

`COc1cc(NS(=O)(=O)c2cc3c(cc2C)oc(=O)n3C)cc(OC)c1` and `COc1ccc(Cl)cc1NS(=O)(=O)c1cc2c(cc1C)oc(=O)n2C` fall in the same range of AC50: 1 to 10 µM for the first, 1 to 10 µM for the second.

First: Cn1c(=O)oc2cc(S(=O)(=O)Nc3cc(F)cc(F)c3)ccc21
Second: Cn1c(=O)oc2cc(S(=O)(=O)Nc3cc(Cl)cc(Cl)c3)ccc21
The AC50 of the first is higher: 1 to 10 µM for the first, less than 1 µM for the second.

`COc1ccc(Cl)cc1S(=O)(=O)Nc1cc2c(cc1Cl)oc(=O)n2C` and `COc1ccc(C)cc1S(=O)(=O)Nc1cc2c(cc1Cl)oc(=O)n2C` fall in the same range of AC50: 1 to 10 µM for the first, 1 to 10 µM for the second.

`O=c1[nH]c2cc(NS(=O)(=O)c3cccs3)c(Cl)cc2o1` and `Cn1c(=O)oc2cc(Cl)c(S(=O)(=O)Nc3ccc(F)cc3)cc21` fall in the same range of AC50: 1 to 10 µM for the first, 1 to 10 µM for the second.

First: COc1ccc(Cl)cc1NS(=O)(=O)c1cc2sc(=O)sc2cc1C
Second: COc1ccc(Cl)cc1NS(=O)(=O)c1ccc2sc(=O)sc2c1
The AC50 of the first is lower: 1 to 10 µM for the first, 10 to 50 µM for the second.

`Cn1c(=O)oc2cc(S(=O)(=O)Nc3ccc4ccccc4c3)ccc21` and `Cn1c(=O)oc2cc(S(=O)(=O)Nc3cccc4ccccc34)ccc21` fall in the same range of AC50: 1 to 10 µM for the first, 1 to 10 µM for the second.

`Cn1c(=O)sc2cc(S(=O)(=O)Nc3ccc(F)c(Cl)c3)ccc21` and `COCCn1c(=O)oc2cc(S(=O)(=O)Nc3ccc(F)c(Cl)c3)ccc21` cannot be ordered by AC50: less than 1 µM for the first, less than 1 µM for the second.

`Cc1cc2oc(=O)n(C)c2cc1NS(=O)(=O)c1c(F)cccc1F` and `Cn1c(=O)oc2cc(F)c(NS(=O)(=O)c3c(F)cccc3F)cc21` cannot be ordered by AC50: greater than 100 µM for the first, greater than 100 µM for the second.

`Cn1c(=O)oc2cc(F)c(S(=O)(=O)Nc3c(F)cccc3F)cc21` and `Cc1cc2oc(=O)n(C)c2cc1S(=O)(=O)Nc1c(F)cccc1F` cannot be ordered by AC50: greater than 100 µM for the first, greater than 100 µM for the second.

First: Cc1cc2c(cc1S(=O)(=O)N1CCN(Cc3ccccc3)CC1)oc(=O)n2C
Second: Cc1cc2oc(=O)n(C)c2cc1S(=O)(=O)N1CCN(C(=O)Cc2ccc(C(F)(F)F)cc2)CC1
The AC50 of the first is lower: 1 to 10 µM for the first, greater than 100 µM for the second.

`Cn1c(=O)oc2cc(S(=O)(=O)Nc3ccc4ncn(S(=O)(=O)c5cccc6c5oc(=O)n6C)c4c3)ccc21` and `Cn1c(=O)oc2cc(S(=O)(=O)Nc3ccc(Cl)c(Cl)c3)ccc21` fall in the same range of AC50: 1 to 10 µM for the first, 1 to 10 µM for the second.

First: CCC(C)n1c(=O)sc2ccc(NS(=O)(=O)c3cc(Cl)ccc3OC)cc21 (centres unmarked)
Second: Cn1c(=O)oc2cc(Cl)c(S(=O)(=O)Nc3ccc(Cl)cc3)cc21
The AC50 of the first is lower: 1 to 10 µM for the first, 10 to 50 µM for the second.

First: COc1cccc(S(=O)(=O)Nc2cc3c(cc2C)oc(=O)n3C)c1
Second: Cc1cc2oc(=O)n(C)c2cc1S(=O)(=O)Nc1ccc(F)cc1
The AC50 of the first is higher: 10 to 50 µM for the first, less than 1 µM for the second.

`Cn1c(=O)oc2cc(F)c(S(=O)(=O)Nc3ccccc3)cc21` [drawing 242] and `Cn1c(=O)oc2cc(S(=O)(=O)Nc3cccc(C(F)(F)F)c3)ccc21` fall in the same range of AC50: 1 to 10 µM for the first, 1 to 10 µM for the second.
